Measured values: US6869951B1, “Method of changing conformation of a matrix metalloproteinase” (Pharmacia Corporation, priority 1999, dated 2005)
Where a name gives a salt, the structure may show the parent alone.

Experiments:
[1] = target: T1, MMP-8 catalytic domain (residues 85-242) (Homo sapiens, UniProt P22894); experiment: X-ray crystallography of MMP-8 catalytic domain inhibitor complexes; conditions: X-ray crystal structure of the complex, IX, XI relative to compound XII
T1 construct: The catalytic domain (residues 85-242) of MMP-8, neutrophil collagenase, folds into a compact globular structure; made in house
From the text: The MMP-8 catalytic domain was cloned by PCR amplification from a cDNA contruct of full-length MMP-8. The amplified DNA was cloned into NdeI/HindIII restriction sites in an in-house pRec expression vector. Protein was expressed in a bacterial expression system by induction with nalidixic acid. Recombinant protein was expressed primarily as inclusion bodies. Purified protein was recovered in high yield following ion exchange chromatography of denatured protein.
Slow dehydration of the drop leads to formation of single crystals of the inhibitor complex. Details are below.
12 mg/ml MMP-8 in 10 mM MES pH 6.0, 100 mM NaCl, 5 mM CaCl2 pre-incubated with 1 mM inhibitor for 10 minutes at ambient temperature.
4 ul of the protein-inhibitor complex mixed with 6.8 ul 10% PEG6000 and 0.2 M MES pH 6.0
0.8 to 2.5 M sodium/potassium phosphate pH 6.0 (not mixed with protein/inhibitor/PEG drop).
Intensities from crystals of the enzyme inhibitor complexes were measured on a MAR image plate at −140° C. X-rays were generated from a rotating anode generator using a Cu target. The CuKα X-rays were focused onto the samples using long Pt and Ni mirrors.
The data were integrated and scaled using the program DENZO (Otwinowski, Z. and Minor W. in Proceedings of CCP4 Study Weekend: Data Collection and Processing (eds. Sawyer, L., Issacs, N., and Bailey, S.) pp. 56-62 (SERC Daresbury Laboratories, Warrington, UK 1993)).
Standard simulated annealing protocols in the program XPLOR (Brünger, A. T. (1993). XPLOR (Version 3.1): A System for X-ray Crystallography and NMR (Yale University Press, New Haven, Conn.)) were used.
New electron density at the expected active site could in all cases be interpreted with flexible, three-dimensional models of the inhibitors as generated in the program […] (Biosym Technologies (1993). Insight II User Guide, Version 2.2.0. San Diego). Solvent positions were also identified from these electron density maps and side chains of the protein were also sometimes manually adjusted.
Final refinements of the structure were carried out with inclusion of inhibitor and solvent ligands. In the refinements, 10% of the data was set aside for cross validation by evaluation of Rfree (A. T. Brünger, “Free R Value: a novel statistical quantity for accessing the accuracy of crystal structures,” Nature 355, 472-475 (1992)).

cancer-specific antigens = conditions: meta analysis of Phase I/II studies; advanced, treatment-refractory solid tumor cancers (colorectal, pancreatic, ovarian, prostate); cited from earlier work
[2] = clinical trials in cancer patients; cited from earlier work

T1 sequence (P22894 105-262): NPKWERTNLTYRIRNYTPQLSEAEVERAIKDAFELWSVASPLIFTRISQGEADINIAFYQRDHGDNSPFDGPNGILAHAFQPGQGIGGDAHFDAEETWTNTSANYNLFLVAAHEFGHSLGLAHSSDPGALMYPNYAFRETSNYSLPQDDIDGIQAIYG

## CCCCCc1ccc(C(=O)Nc2ccc(S(=O)(=O)N(CCN3CCOCC3)[C@@H](C(=O)NO)C(C)C)cc2)cc1 [Compound X, R-N-[4-[[[1-(hydroxyamino)carbonyl]-2-methylpropyl][2-(4-morpholinyl)ethyl]amino]-sulfonyl]phenyl]-4-pentylbenzamide, monohydrochloride]
[1]
  effect on conformation of the amino acid backbone of the S1' pocket of MMP-8: causes the backbone to deform significantly

## CCCCCCc1ccc(C(=O)Nc2ccc(S(=O)(=O)N(CCN3CCOCC3)[C@@H](C(=O)NO)C(C)C)cc2)cc1 [Compound XI, (R)-4-hexyl-N-[4-[[[1-(hydroxyamino)-carbonyl]-2-methylpropyl][2-(4-morpholinyl)ethyl]amino]sulfonyl]-phenylbenzamide, monohydrochloride]
[1]
  effect on conformation of the amino acid backbone of the S1' pocket of MMP-8: causes the backbone to deform significantly

## CC(O)(CS(=O)(=O)c1ccc(Oc2ccccc2)cc1)C(=O)NO (stereo not shown) [Compound XIV, reference compound]
[1]
  effect on conformation of the amino acid backbone of the S1' pocket of MMP-8: essentially no effect on the conformation of the amino acid backbone

## CCCCCc1ccc(C(=O)Nc2ccc(S(=O)(=O)N(CCN3CCOCC3)[C@@H](C(=O)O)C(C)C)cc2)cc1 [IX, N-[2-(4-morpholinyl)ethyl]-N-[[4-[(4-pentylbenzoyl)amino]phenyl]sulfonyl]-D-valine]
[1]
  effect on conformation of the amino acid backbone of the S1' pocket of MMP-8: causes the backbone to deform significantly

## CCCc1ccc(C(=O)Nc2ccc(S(=O)(=O)N[C@@H](C(=O)O)C(C)C)cc2)cc1 [XII]
[1]
  effect on conformation of the amino acid backbone of the S1' pocket of MMP-8: essentially no effect on the conformation of the amino acid backbone

## CNC(=O)[C@@H](NC(=O)[C@H](CC(C)C)[C@H](O)C(=O)NO)C(C)(C)C [marimastat]
cancer-specific antigens
  effect on rise of cancer-specific antigens used as surrogate markers for biological activity: dose-related reduction in the rise of cancer-specific antigens
[2]
  most common drug-related toxicity: musculoskeletal pain and stiffness
